How the values were obtained:
HOP-62 = test: NCI60 one-dose screen (10 μM), Non-small Cell Lung Cancer; type: cell-based; details: Homo sapiens; 10 μM; HOP-62, Non-small Cell Lung Cancer; read-out: Growth percent rate
NCI-H23 = test: as above; type: cell-based; details: Homo sapiens; 10 μM; NCI-H23, Non-small Cell Lung Cancer; read-out: Growth percent rate
SW-620 = test: NCI60 one-dose screen (10 μM), Colon Cancer; type: cell-based; details: Homo sapiens; 10 μM; SW-620, Colon Cancer; read-out: Growth percent rate
HT29 = test: NCI60 one-dose screen (10 μM), Colon Cancer; type: cell-based; details: Homo sapiens, HT-29; 10 μM; HT29, Colon Cancer; read-out: Growth percent rate
MDA-MB-435 = test: NCI60 one-dose screen (10 μM), Melanoma; type: cell-based; details: Homo sapiens; 10 μM; MDA-MB-435, Melanoma; read-out: Growth percent rate
UACC-257 = test: NCI60 one-dose screen (10 μM), Melanoma; type: cell-based; details: Homo sapiens; 10 μM; UACC-257, Melanoma; read-out: Growth percent rate
ACHN = test: NCI60 one-dose screen (10 μM), Renal Cancer; type: cell-based; details: Homo sapiens, 10 μM, Renal Cancer, read-out: Growth percent rate
DU-145 = test: NCI60 one-dose screen (10 μM), Prostate Cancer; type: cell-based; details: Homo sapiens; 10 μM; DU-145, Prostate Cancer; read-out: Growth percent rate
SNB-75 = test: NCI60 one-dose screen (10 μM), CNS Cancer; type: cell-based, human; details: Homo sapiens; 10 μM; SNB-75, CNS Cancer; read-out: Growth percent rate
IGROV1 = test: NCI60 one-dose screen (10 μM), Ovarian Cancer; type: cell-based; details: Homo sapiens, IGROV-1; 10 μM; IGROV1, Ovarian Cancer; read-out: Growth percent rate
A549/ATCC = test: NCI60 one-dose screen (10 μM), Non-small Cell Lung Cancer; type: cell-based; details: Homo sapiens; 10 μM; A549/ATCC, Non-small Cell Lung Cancer; read-out: Growth percent rate
CCRF-CEM = test: NCI60 one-dose screen (10 μM), Leukemia; type: cell-based; details: Homo sapiens, 10 μM, Leukemia, read-out: Growth percent rate
HCT-15 = test: NCI60 one-dose screen (10 μM), Colon Cancer; type: cell-based; details: Homo sapiens; 10 μM; HCT-15, Colon Cancer; read-out: Growth percent rate
HL-60(TB) = test: NCI60 one-dose screen (10 μM), Leukemia; type: cell-based; details: Homo sapiens; 10 μM; HL-60(TB), Leukemia; read-out: Growth percent rate
KM12 = test: NCI60 one-dose screen (10 μM), Colon Cancer; type: cell-based, human; details: Homo sapiens; 10 μM; KM12, Colon Cancer; read-out: Growth percent rate
MOLT-4 = test: NCI60 one-dose screen (10 μM), Leukemia; type: cell-based, human; details: Homo sapiens; 10 μM; MOLT-4, Leukemia; read-out: Growth percent rate
K-562 = test: NCI60 one-dose screen (10 μM), Leukemia; type: cell-based; details: Homo sapiens, K562; 10 μM; K-562, Leukemia; read-out: Growth percent rate
LOX IMVI = test: NCI60 one-dose screen (10 μM), Melanoma; type: cell-based, human; details: Homo sapiens; 10 μM; LOX IMVI, Melanoma; read-out: Growth percent rate
MALME-3M = test: NCI60 one-dose screen (10 μM), Melanoma; type: cell-based; details: Homo sapiens; 10 μM; MALME-3M, Melanoma; read-out: Growth percent rate
SNB-19 = test: NCI60 one-dose screen (10 μM), CNS Cancer; type: cell-based; details: Homo sapiens; 10 μM; SNB-19, CNS Cancer; read-out: Growth percent rate
NCI-H322M = test: NCI60 one-dose screen (10 μM), Non-small Cell Lung Cancer; type: cell-based; details: Homo sapiens, 10 μM, Non-small Cell Lung Cancer, read-out: Growth percent rate
SK-MEL-5 = test: NCI60 one-dose screen (10 μM), Melanoma; type: cell-based, human; details: Homo sapiens; 10 μM; SK-MEL-5, Melanoma; read-out: Growth percent rate
TK-10 = test: NCI60 one-dose screen (10 μM), Renal Cancer; type: cell-based; details: Homo sapiens; 10 μM; TK-10, Renal Cancer; read-out: Growth percent rate
U251 = test: NCI60 one-dose screen (10 μM), CNS Cancer; type: cell-based; details: Homo sapiens, U-251; 10 μM; U251, CNS Cancer; read-out: Growth percent rate
RPMI-8226 = test: NCI60 one-dose screen (10 μM), Leukemia; type: cell-based; details: Homo sapiens; 10 μM; RPMI-8226, Leukemia; read-out: Growth percent rate
SF-295 = test: NCI60 one-dose screen (10 μM), CNS Cancer; type: cell-based; details: Homo sapiens; 10 μM; SF-295, CNS Cancer; read-out: Growth percent rate
SK-MEL-2 = test: NCI60 one-dose screen (10 μM), Melanoma; type: cell-based; details: Homo sapiens; 10 μM; SK-MEL-2, Melanoma; read-out: Growth percent rate
OVCAR-8 = test: NCI60 one-dose screen (10 μM), Ovarian Cancer; type: cell-based; details: Homo sapiens; 10 μM; OVCAR-8, Ovarian Cancer; read-out: Growth percent rate
COLO 205 = test: NCI60 one-dose screen (10 μM), Colon Cancer; type: cell-based, human; details: Homo sapiens; 10 μM; COLO 205, Colon Cancer; read-out: Growth percent rate
SF-268 = test: NCI60 one-dose screen (10 μM), CNS Cancer; type: cell-based; details: Homo sapiens; 10 μM; SF-268, CNS Cancer; read-out: Growth percent rate
786–0 = test: NCI60 one-dose screen (10 μM), Renal Cancer; type: cell-based; details: Homo sapiens; 10 μM; 786-0, Renal Cancer; read-out: Growth percent rate
SF-539 = test: NCI60 one-dose screen (10 μM), CNS Cancer; type: cell-based, human; details: Homo sapiens; 10 μM; SF-539, CNS Cancer; read-out: Growth percent rate
A498 = test: NCI60 one-dose screen (10 μM), Renal Cancer; type: cell-based; details: Homo sapiens; 10 μM; A498, Renal Cancer; read-out: Growth percent rate
OVCAR-4 = test: NCI60 one-dose screen (10 μM), Ovarian Cancer; type: cell-based; details: Homo sapiens; 10 μM; OVCAR-4, Ovarian Cancer; read-out: Growth percent rate
M14 = test: NCI60 one-dose screen (10 μM), Melanoma; type: cell-based; details: Homo sapiens; 10 μM; M14, Melanoma; read-out: Growth percent rate
RXF 393 = test: NCI60 one-dose screen (10 μM), Renal Cancer; type: cell-based, human; details: Homo sapiens; 10 μM; RXF 393, Renal Cancer; read-out: Growth percent rate
SK-MEL-28 = test: NCI60 one-dose screen (10 μM), Melanoma; type: cell-based; details: Homo sapiens; 10 μM; SK-MEL-28, Melanoma; read-out: Growth percent rate
NCI-H460 = test: NCI60 one-dose screen (10 μM), Non-small Cell Lung Cancer; type: cell-based; details: Homo sapiens; 10 μM; NCI-H460, Non-small Cell Lung Cancer; read-out: Growth percent rate
MCF7 = test: NCI60 one-dose screen (10 μM), Breast Cancer; type: cell-based; details: Homo sapiens; 10 μM; MCF7, Breast Cancer; read-out: Growth percent rate
CAKI-1 = test: NCI60 one-dose screen (10 μM), Renal Cancer; type: cell-based; details: Homo sapiens; 10 μM; CAKI-1, Renal Cancer; read-out: Growth percent rate
[1] = tested on: 60 human tumor cell lines (NCI60); test: NCI60 one-dose screen (10 μM), whole panel; type: cell-based; details: 10 μM; mean over 60 human cancer cell lines; read-out: Growth percent rate, Mean

## CC[C@]12C=CCN3CC[C@@]4(c5ccc(OC)cc5N(C)[C@H]4[C@@](O)(C(=O)OC)[C@@H]1OC(=O)CCCN1CCN(C(=O)c4ccco4)CC1)[C@@H]32 [Compound 26]
HOP-62
  activity at 10 µM: 107%
NCI-H23
  activity at 10 µM: 109%
SW-620
  activity at 10 µM: 112%
HT29
  activity at 10 µM: 103%
MDA-MB-435
  activity at 10 µM: 104%
UACC-257
  activity at 10 µM: 101%
ACHN
  activity at 10 µM: 103%
DU-145
  activity at 10 µM: 105%
SNB-75
  activity at 10 µM: 68.3%
IGROV1
  activity at 10 µM: 109%
A549/ATCC
  activity at 10 µM: 92.7%
CCRF-CEM
  activity at 10 µM: 103%
HCT-15
  activity at 10 µM: 98.8%
HL-60(TB)
  activity at 10 µM: 93.8%
KM12
  activity at 10 µM: 108%
MOLT-4
  activity at 10 µM: 77.3%
K-562
  activity at 10 µM: 76.7%
LOX IMVI
  activity at 10 µM: 96.6%
MALME-3M
  activity at 10 µM: 102%
SNB-19
  activity at 10 µM: 94.4%
NCI-H322M
  activity at 10 µM: 108%
SK-MEL-5
  activity at 10 µM: 75.6%
TK-10
  activity at 10 µM: 104%
U251
  activity at 10 µM: 93.4%
RPMI-8226
  activity at 10 µM: 69.2%
SF-295
  activity at 10 µM: 89.5%
SK-MEL-2
  activity at 10 µM: 109%
OVCAR-8
  activity at 10 µM: 104%
COLO 205
  activity at 10 µM: 99.7%
SF-268
  activity at 10 µM: 97.3%
786–0
  activity at 10 µM: 94.2%
SF-539
  activity at 10 µM: 101%
A498
  activity at 10 µM: 107%
OVCAR-4
  activity at 10 µM: 94%
M14
  activity at 10 µM: 101%
RXF 393
  activity at 10 µM: 102%
SK-MEL-28
  activity at 10 µM: 105%
NCI-H460
  activity at 10 µM: 112%
MCF7
  activity at 10 µM: 88.7%
CAKI-1
  activity at 10 µM: 79.8%
[1]
  activity at 10 µM: 96.8%

From article PMC11277489, “Novel Piperazine Derivatives of Vindoline as Anticancer Agents” (International Journal of Molecular Sciences, 2024)
